Test results published in BigSolDB 2.1.

N#Cc1cccnc1
solubility (mole fraction)
Settings	in acetone	in ethanol	in ethyl acetate	in isobutanol	in methanol	in n-butanol	in n-propanol	in tetrachloromethane
268.15 K	0.247	0.0429	0.209	0.028	0.0877	0.025	0.0434	0.0098
273.15 K	0.29	0.0593	0.247	0.0396	0.111	0.0393	0.0658	0.0152
278.15 K	0.329	0.0903	0.282	0.0702	0.153	0.0645	0.0976	0.024
288.15 K	0.438	0.201	0.375	0.17	0.267	0.164	0.214	0.095
298.15 K	0.541	0.339	0.478	0.3	0.404	0.275	0.348	0.239
308.15 K	0.664	0.491	0.63	0.435	0.541	0.427	0.5	0.393
318.15 K	0.833	0.627	0.803	0.6	0.726	0.577	0.643	0.568

N#Cc1ccncc1
solubility (mole fraction)
Settings	in acetone	in ethanol	in ethyl acetate	in isobutanol	in methanol	in n-butanol	in n-propanol	in tetrachloromethane
268.15 K	0.117	0.0065	0.106	0.0133	0.0245	0.0141	0.0246	0.0129
273.15 K	0.134	0.016	0.121	0.0176	0.0302	0.0149	0.0271	0.0194
278.15 K	0.155	0.0179	0.142	0.0229	0.0361	0.0216	0.0396	0.0292
288.15 K	0.213	0.0367	0.203	0.0469	0.062	0.0471	0.07	0.0396
298.15 K	0.275	0.0706	0.261	0.108	0.0954	0.0898	0.129	0.0839
308.15 K	0.356	0.136	0.343	0.172	0.173	0.151	0.19	0.151
318.15 K	0.46	0.273	0.437	0.304	0.304	0.284	0.298	0.287
